Columns and labels:
sperm = test: Sperm motion parameters by computer analyzer; conditions: data not shown
Gi proteins = test: Pertussis toxin pre-incubation before rhZP3-induced acrosome reaction; assay type: cell-based, human
Description: Experiment 3: Acrosome reaction-inducing activity of rhZP3: effect on Gi proteins—Motile sperm fractions were obtained from the ejaculates of three donors and incubated under capacitating conditions. In each experiment, the test aliquot was pre-incubated with pertussis toxin (100 ng/ml final concentration) for 4 hours followed by incubation with rhZP3 (500 ng/ml). A control aliquot was incubated in culture medium alone for 4 hours and then treated with rhZP3 at the same dose. After 30 min exposure to rhZP3 or control conditions, sperm were assayed for acrosome reaction using FITC-PSA.

human sperm [1] = test: Acrosome reaction of live sperm by FITC-PSA, second series; assay type: cell-based; conditions: A23187 5 μM
Description: Determination of the acrosome reaction—The proportion of live acrosome-reacted spermatozoa incubated under capacitating conditions was determined with the fluorescent probe fluorescein isothiocyanate-labeled Pisum Sativum Agglutinin (FITC-PSA, Sigma) after staining with a supravital stain (Hoechst 33258, Sigma) following established techniques (12,13). At least 200 sperm per sample were evaluated in duplicate at 600× magnification using an epifluorescence microscope equipped with phase-contrast optics (Optiphot; Nikon, Melville, N.Y.). Slides were coded and read in a blind fashion.
A calcium ionophore agent (A23187, Sigma) tested at 5 μM and human acid solubilized zona pellucida tested at a final concentration of 4 zona/10 μl were used as positive controls (20). In further experiments, the acrosomal status was assessed by transmission electron microscopy. Spermatozoa were fixed by mixing sperm suspensions with equal volumes of 2% (v/v) glutaraldehyde (in 3 mM CaCl2 and 0.1 M sodium cacodylate); thereafter, samples were dehydrated twice and prepared for thin sectioning using previously published procedures. Ultrastructural examination was performed with a transmission electron microscope (Jeol JEM-1200 EX II, Peabody, Mass.).
Experiment 2: Characterization of the acrosome reaction inducing activity of the rhZP3 in dose- and sperm capacitation-dependency studies—Motile sperm fractions from 29 ejaculates of 11 different donors were incubated under capacitating conditions for 3 hours and assayed for acrosome reaction using FITC-PSA. Following swim-up, sperm aliquots were pre-incubated for 30 minutes with rhZP3 (30 ng/ml), A23187 (positive control), culture medium from non-transfected PA-cells (NT) or sperm culture medium (negative controls). This was the initially selected dose of rhZP3 to be tested as it had proven to effect significant inhibition of sperm-zona binding in the HZA.
The dose-dependent effect of rhZP3 on acrosome reaction was examined in the swim-up fractions obtained from four different donors. The fractions were capacitated for 3 hours and exposed for 30 min to rhZP3 at final concentrations of 0, 7.5, 15, 30, 60, 120, 240, 480, 960 and 1920 ng/ml. The capacitation-dependency of the acrosome reaction-inducing activity of rhZP3 was assessed in the swim-up fractions of four ejaculates from four different donors. Capacitation times included: 0 (immediately post-swim-up), 1, 4, 8, 12 and 24 hours. After the capacitation period, rhZP3 was added to the sperm suspension at a final concentration of 30 ng/ml.
In another set of experiments, three different ejaculates were used to compare the effects of the rhZP3 (tested at 500 ng/ml) with those of solubilized zonae pellucidae and the calcium ionophore. Further, the induction of the acrosome reaction was assessed in parallel with FITC-PSA and transmission electron microscopy. The goal of these studies was to compare the morphological features of the acrosome reaction between agonists and also between the agonist-induced and basal exocytosis rates.

human sperm [2] = test: Acrosome reaction of capacitated sperm by FITC/PSA with Hoechst 33258 viability stain, first series; assay type: cell-based; conditions: NT 30 ng/ml, calcium ionophore 5 μM, rhZP3 30 ng/ml, solubilized zona 0.5 ZP/μl, mean (± SEM)
Description: The purified rhZP3 was also applied to test its activity to induce human sperm acrosome reaction. The motile sperm obtained by swim-up procedure were allowed to capacitate in HTF/0.5% HSA for four hours at 37° C. in 5% CO2 in huminified air. The motile sperm concentration used to detect acrosome reaction was set at 2 million/ml. A series of 100 ul of capacitated sperm aliquots with different inducers were prepared in Eppendorf vials and cultured in the incubator in 95% air, 5% CO2, at 37° C. for 30 minutes. The test was conducted as follows: positive control: calcium ionophore A23187 (Sigma) at 5 μM; negative controls: 1) sperm culture medium alone, and 2) protein isolated from the culture media of non-transfected PA-1 cells (NT); test: rhZP3. Triple slides were made for each assay. Hoechst 33258 stain was used for determination of sperm viability. Fluorescein isothiocyanate conjugated Pisum sativum agglutinin (FITC/PSA) (Sigma) staining technique was employed to evaluate the acrosome reaction (Cross et al, 1986). Blind reading was required for evaluation and at least 100˜200 cells from 5 random fields were evaluated per spot on the slide. […] The results were expressed as percentage of acrosome-reacted spermatozoa in the total population counted (Cross, 1986).
In some experiments, Solubilized zona pellucida were used as control to test its function to induce sperm acrosome reaction. The solubilized zona pellucida were prepared according to Franken et al (1996). Ooplasma was removed using a small glass micropipette. A vigorous pipetting action would break their zona causing ooplasma to be spilled into surrounding medium. The chosen amount of zonae was transferred into an eppendorf tube and was centrifuged for 15 minutes at 300×g. Using a steromicroscope, the media were removed with pipette, making sure not to disturb zona. The final result was to remove maximum medium. A chosen volume (depending on the zona concentration needed) of 10 mM HCl was added. Under the microscopic vision, zona/HCl was pipetted up and down until all zona were dissolved. Then 10 mM NaOH of equal volume as the HCl was added and mixed well to obtain the stock zona solution.

Molecule | sperm motion parameters, treatment versus control (sperm) | effect on basal rate of spontaneous acrosomal exocytosis (Gi proteins; pertussis toxin 100 ng/ml) | effect on induction of the acrosome reaction by rhZP3 (Gi proteins; pertussis toxin 100 ng/ml 4 h, then rhZP3 500 ng/ml 30 min) | live, acrosome reacted sperm (human sperm [1]; rhZP3 30 ng/ml, 3 h capacitation, 30 min exposure) [%] | induction of the acrosome reaction (human sperm [1]; rhZP3 500 ng/ml, solubilized zona 4 zona/10 μl) [%] | % acrosome reacted-sperm (human sperm [2]; 4 h capacitation, 30 min) [%] | % sperm viability (human sperm [2])
pertussis toxin | not significantly different | did not modify the basal rate of spontaneous acrosomal exocytosis | inhibited the induction of the acrosome reaction by rhZP3 | – | – | – | –
CNc1ccc2oc(C[C@H]3O[C@@]4(CC[C@H]3C)O[C@H]([C@H](C)C(=O)c3ccc[nH]3)[C@H](C)C[C@H]4C)nc2c1C(=O)O [Calcium ionophore, A23187, reference compound] | not significantly different | – | – | 19.4±4.1 | 34.7±5.2 | 22.5 | 96.5 (2.0) %

Reference: patent publication US7037663B2, “Human zona pellucida protein 3 and uses thereof” (Eastern Virginia Medical School, priority 1998, dated 2006)
